Measured values taken from patent US20240150321A1, “PYRAZOLYLSULFONAMIDE COMPOUNDS AND THEIR USE IN THERAPY” (HOTSPOT THERAPEUTICS, INC., priority 2022, published 2024).
Read-outs that look alike come from different tables or passages of the source.

Key:
[1] = system: NF-kB reporter in Jurkat cells; experiment: NF-kB reporter assay in Jurkat cells stimulated with aCD3/aCD28/PMA; format: cell-based; conditions: read-out: NF-kB Reporter Assay IC50
Procedure, shortened: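 Jurkat cells (25,000/well, serum-free RPMI) were pre-incubated 1 h at 37° C with serially diluted compound, then stimulated 4 h with aCD3/aCD28/PMA at final […]. NF-kB reporter activity was read by One-Glo luminescence; IC50 values reported.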

Avi-tagged FL MALT-1 = Avi-tagged FL MALT-1 (Homo sapiens (Human), UniProt Q9UDY8); experiment: MALT-1 Fluorogenic Peptide Cleavage Assay (MALT1 inhibition assay); format: biochemical; conditions: Ac-LRSR-AMC peptide substrate, 30 min pre-incubation, 90 min reaction at room temperature
Sequence of Avi-tagged FL MALT-1 (Q9UDY8 whole entry): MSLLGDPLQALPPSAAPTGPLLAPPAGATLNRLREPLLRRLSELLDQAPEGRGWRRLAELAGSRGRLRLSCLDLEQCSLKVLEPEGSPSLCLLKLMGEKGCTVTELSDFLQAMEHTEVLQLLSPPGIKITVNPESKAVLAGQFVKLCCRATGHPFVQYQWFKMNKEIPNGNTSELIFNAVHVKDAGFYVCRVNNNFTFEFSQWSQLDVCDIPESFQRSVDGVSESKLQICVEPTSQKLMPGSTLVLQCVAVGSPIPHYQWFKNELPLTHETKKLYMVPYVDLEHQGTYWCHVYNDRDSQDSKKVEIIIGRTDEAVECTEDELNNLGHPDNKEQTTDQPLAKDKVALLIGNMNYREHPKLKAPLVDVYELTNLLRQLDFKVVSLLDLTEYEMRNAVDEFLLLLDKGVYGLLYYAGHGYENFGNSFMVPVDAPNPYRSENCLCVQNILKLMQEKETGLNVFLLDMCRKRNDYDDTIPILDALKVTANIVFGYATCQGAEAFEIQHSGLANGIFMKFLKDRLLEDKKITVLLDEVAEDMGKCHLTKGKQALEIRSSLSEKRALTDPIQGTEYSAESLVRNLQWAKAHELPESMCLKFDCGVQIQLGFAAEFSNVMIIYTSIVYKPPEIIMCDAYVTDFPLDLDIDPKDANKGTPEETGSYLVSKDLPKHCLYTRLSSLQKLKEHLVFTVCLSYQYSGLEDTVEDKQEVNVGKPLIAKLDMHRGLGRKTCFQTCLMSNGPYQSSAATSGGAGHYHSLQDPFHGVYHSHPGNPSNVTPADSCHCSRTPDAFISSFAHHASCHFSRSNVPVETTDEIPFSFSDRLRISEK
Procedure, shortened: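 Full-length Avi-tagged human MALT-1 (40 nM working stock) pre-incubated 30 min at RT with compound in 25 mM HEPES pH 6.89, 660 mM sodium citrate, 1 mM TCEP, […], 0.05% CHAPS, 2% DMSO. Ac-LRSR-AMC added at Km (50 μM working stock) or 10×Km (280 μM working stock); 90 min at RT, AMC fluorescence (ex 342/em 441 nm), IC50 from % inhibition curves.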

[2] = Homo sapiens, Jurkat cells, 1 hr compound pre-incubation, aCD3/aCD28/PMA stimulation 4 hr, One-Glo readout

| IC50 (Avi-tagged FL MALT-1) | IC50 [1, 2] | IC50 ([1]; Jurkat cells, 1 hr compound pre-incubation, aCD3/aCD28/PMA stimulation 4 hr, One-Glo readout) | SMILES | IC50 ([1]; Homo sapiens, Jurkat) |
| --- | --- | --- | --- | --- |
| 1000 to 2500 nM | < 400 nM |  | [2H]c1nn(C([2H])([2H])[2H])c2c(NS(=O)(=O)c3cnn(-c4cc(C(C)(F)F)ccn4)c3)cccc12 [Compound I-380, 1-(4-(1,1-difluoroethyl)pyridin-2-yl)-N-(1-(methyl-d3)-1H-indazol-7-yl-3-d)-1H-pyrazole-4-sulfonamide] |  |
| 400 to 1000 nM | < 400 nM |  | COc1ccc2cnn(C)c2c1NS(=O)(=O)c1cnn(-c2cc(N3CCCC3)ccn2)c1 [Compound I-381, N-(6-methoxy-1-methylindazol-7-yl)-1-[4-(pyrrolidin-1-yl)pyridin-2-yl]pyrazole-4-sulfonamide] |  |
| > 2500 nM | < 400 nM |  | Cn1ncc2cccc(NS(=O)(=O)c3cnn(-c4cc(C(C)(C)C#N)ccn4)c3)c21 [Compound I-382, 1-(4-(2-cyanopropan-2-yl)pyridin-2-yl)-N-(1-methyl-1H-indazol-7-yl)-1H-pyrazole-4-sulfonamide] |  |
| > 2500 nM | < 400 nM |  | Cn1ncc2cccc(NS(=O)(=O)c3cnn(-c4cc(C5(F)CC(F)(F)C5)ccn4)c3)c21 [Compound I-383, N-(1-methylindazol-7-yl)-1-[4-(1,3,3-trifluorocyclobutyl)pyridin-2-yl]pyrazole-4-sulfonamide] |  |
| > 2500 nM | < 400 nM |  | COc1ccc2cnn(C)c2c1NS(=O)(=O)c1cnn(-c2cc(N3CCOCC3)ccn2)c1 [Compound I-384] |  |
| > 2500 nM | < 400 nM |  | COc1ncc2cnn(C)c2c1NS(=O)(=O)c1cnn(-c2cc(N3CC(C)(C)C3)ccn2)c1 [Compound I-385] |  |
| > 2500 nM | < 400 nM |  | COc1ncc2cnn(C)c2c1NS(=O)(=O)c1cnn(-c2cc(N3CC4(CC4)C3)ccn2)c1 [Compound I-386, 1-(4-(5-azaspiro[2.3]hexan-5-yl)pyridin-2-yl)-N-(6-methoxy-1-methyl-1H-pyrazolo[4,3-c]pyridin-7-yl)-1H-pyrazole-4-sulfonamide] |  |
| > 2500 nM | < 400 nM |  | COc1ncc2cnn(C)c2c1NS(=O)(=O)c1cnn(-c2cc(N3CCCCC3)ccn2)c1 [Compound I-387, N-(6-methoxy-1-methyl-1H-pyrazolo[4,3-c]pyridin-7-yl)-1-(4-(piperidin-1-yl)pyridin-2-yl)-1H-pyrazole-4-sulfonamide] |  |
| 400 to 1000 nM | < 400 nM |  | COc1ncc2cnn(C)c2c1NS(=O)(=O)c1cnn(-c2cc(N3CCC3)ccn2)c1 [Compound I-388, 1-[4-(azetidin-1-yl)pyridin-2-yl]-N-{6-methoxy-1-methylpyrazolo[4,3-c]pyridin-7-yl}pyrazole-4-sulfonamide] |  |
| > 2500 nM | < 400 nM |  | CC1CCN(c2ccnc(-n3cc(S(=O)(=O)Nc4cccc5cnn(C)c45)cn3)c2)CC1 [Compound I-390, N-(1-methylindazol-7-yl)-1-[4-(4-methylpiperidin-1-yl)pyridin-2-yl]pyrazole-4-sulfonamide] |  |
| > 2500 nM | < 400 nM |  | Cn1ncc2cccc(NS(=O)(=O)c3cnn(-c4cc(N5CCCCCC5)ccn4)c3)c21 [Compound I-391, 1-[4-(azepan-1-yl)pyridin-2-yl]-N-(1-methylindazol-7-yl)pyrazole-4-sulfonamide] |  |
| > 2500 nM | < 400 nM |  | COc1ccc2cnn(C)c2c1NS(=O)(=O)c1cnn(-c2cc(N3CCCCCC3)ccn2)c1 [Compound I-392] |  |
| > 2500 nM | > 2500 nM |  | O=S(=O)(c1cnn(-c2cc(C(F)(F)F)ccn2)c1)N1CCCc2ccc3cn[nH]c3c21 [Compound I-393, 9-((1-(4-(trifluoromethyl)pyridin-2-yl)-1H-pyrazol-4-yl)sulfonyl)-6,7,8,9-tetrahydro-1H-pyrazolo[4,3-h]quinoline] |  |
| > 2500 nM | < 400 nM |  | CC1CC(F)(c2ccnc(-n3cc(S(=O)(=O)Nc4cccc5cnn(C)c45)cn3)c2)C1 (centres unmarked) [Compound I-394] |  |
| > 2500 nM |  | < 400 nM | CC1CC(F)(c2ccnc(-n3cc(S(=O)(=O)Nc4cccc5cnn(C)c45)cn3)c2)C1 (centres unmarked) [Compound I-395, 1-(4-(1-fluoro-3-methylcyclobutyl)pyridin-2-yl)-N-(1-methyl-1H-indazol-7-yl)-1H-pyrazole-4-sulfonamide] |  |
| 1000 to 2500 nM | < 400 nM |  | COc1ncc2cnn(C)c2c1NS(=O)(=O)c1cnn(-c2cc(N3CC(C)C3)ccn2)c1 [Compound I-397] |  |
| 400 to 1000 nM | < 400 nM |  | COc1ncc2cnn(C)c2c1NS(=O)(=O)c1cnn(-c2cc(N3CCCC3)ccn2)c1 [Compound I-398, N-{6-methoxy-1-methylpyrazolo[4,3-c]pyridin-7-yl}-1-[4-(pyrrolidin-1-yl)pyridin-2-yl]pyrazole-4-sulfonamide] |  |
| > 2500 nM | < 400 nM |  | COC1CC(c2ccnc(-n3cc(S(=O)(=O)Nc4cccc5cnn(C)c45)cn3)c2)C1 (centres unmarked) [Compound I-399, 1-(4-(3-methoxycyclobutyl)pyridin-2-yl)-N-(1-methyl-1H-indazol-7-yl)-1H-pyrazole-4-sulfonamide] |  |
| > 2500 nM | < 400 nM |  | C[C@H]1CCN(c2ccnc(-n3cc(S(=O)(=O)Nc4cccc5cnn(C)c45)cn3)c2)C1 [Compound I-400, N-(1-methylindazol-7-yl)-1-{4-[(3S)-3-methylpyrrolidin-1-yl]pyridin-2-yl} pyrazole-4-sulfonamide] |  |
| > 2500 nM | < 400 nM |  | C[C@@H]1CCN(c2ccnc(-n3cc(S(=O)(=O)Nc4cccc5cnn(C)c45)cn3)c2)C1 [Compound I-401, N-(1-methylindazol-7-yl)-1-{4-[(3R)-3-methylpyrrolidin-1-yl]pyridin-2-yl}pyrazole-4-sulfonamide] |  |
| > 2500 nM | < 400 nM |  | COc1ccc2cnn(C)c2c1NS(=O)(=O)c1cnn(-c2cc(N3CC[C@H](C)C3)ccn2)c1 [Compound I-402] |  |
| > 2500 nM | < 400 nM |  | COc1ccc2cnn(C)c2c1NS(=O)(=O)c1cnn(-c2cc(N3CC[C@@H](C)C3)ccn2)c1 [Compound I-403] |  |
| > 2500 nM | < 400 nM |  | COc1ncc2cnn(C)c2c1NS(=O)(=O)c1cnn(-c2cc(N3CC4CC4C3)ccn2)c1 (centres unmarked) [Compound I-405] |  |
| > 2500 nM | < 400 nM |  | COc1ncc2cnn(C)c2c1NS(=O)(=O)c1cnn(-c2cc(N3CCC(C)CC3)ccn2)c1 [Compound I-407] |  |
| > 2500 nM | < 400 nM |  | COc1ncc2cnn(C)c2c1NS(=O)(=O)c1cnn(-c2cc(N3CCCCCC3)ccn2)c1 [Compound I-408] |  |
| > 2500 nM | < 400 nM |  | Cn1ncc2cccc(NS(=O)(=O)c3cnn(-c4cc(N5CC6CC5C6)ccn4)c3)c21 [Compound I-409, 1-(4-{2-azabicyclo[2.1.1]hexan-2-yl}pyridin-2-yl)-N-(1-methylindazol-7-yl)pyrazole-4-sulfonamide] |  |
| > 2500 nM | < 400 nM |  | Cn1ncc2cccc(NS(=O)(=O)c3cnn(-c4cc(N5CCC6(CC6)C5)ccn4)c3)c21 [Compound I-410, 1-(4-{5-azaspiro[2.4]heptan-5-yl}pyridin-2-yl)-N-(1-methylindazol-7-yl)pyrazole-4-sulfonamide] |  |
| ≤ 400 nM | < 400 nM |  | [2H]C([2H])([2H])n1ncc2cnc(OC)c(NS(=O)(=O)c3cnn(-c4cc(C(C)(F)F)ccn4)c3)c21 [Compound I-411, 1-(4-(1,1-Difluoroethyl)Pyridin-2-yl)-N-(6-Methoxy-1-(Methyl-D3)-1H-Pyrazolo[4,3-C]Pyridin-7-yl)-1H-Pyrazole-4-Sulfonamide] |  |
| ≤ 400 nM | < 400 nM |  | [2H]C([2H])([2H])n1ncc2ccc(OC)c(NS(=O)(=O)c3cnn(-c4cc(C(C)(F)F)ccn4)c3)c21 [Compound I-412, 1-(4-(1,1-Difluoroethyl)Pyridin-2-yl)-N-(6-Methoxy-1-(Methyl-D3)-1H-Indazol-7-yl)-1H-Pyrazole-4-Sulfonamide] |  |

| SMILES | IC50 (Avi-tagged FL MALT-1) | IC50 [1, 2] | IC50 ([1]; Jurkat cells, 1 hr compound pre-incubation, aCD3/aCD28/PMA stimulation 4 hr, One-Glo readout) | IC50 ([1]; Homo sapiens, Jurkat) |
| --- | --- | --- | --- | --- |
| O=S(=O)(c1cnn(-c2cc(C(F)(F)F)ccn2)c1)N1CCCn2ncc3cccc1c32 [Compound I-379, 1-((1-(4-(trifluoromethyl)pyridin-2-yl)-1H-pyrazol-4-yl)sulfonyl)-1,2,3,4-tetrahydro-[1,4]diazepino[3,2,1-hi]indazole] | > 2500 nM |  |  | > 2500 nM |
| Cn1ncc2cccc(NS(=O)(=O)c3cnn(-c4cc(N5CC6CC(C6)C5)ccn4)c3)c21 [Compound I-389, 1-(4-(3-Azabicyclo[3.1.1]Heptan-3-yl)Pyridin-2-yl)-N-(1-Methyl-1H-Indazol-7-yl)-1H-Pyrazole-4-Sulfonamide] | > 2500 nM | < 400 nM |  |  |
| O=S(=O)(c1cnn(-c2cc(C(F)(F)F)ccn2)c1)N1CCCCn2ncc3cccc1c32 [Compound I-396, 1-((1-(4-(trifluoromethyl)pyridin-2-yl)-1H-pyrazol-4-yl)sulfonyl)-2,3,4,5-tetrahydro-1H-[1,4]diazocino[3,2,1-hi]indazole] | > 2500 nM |  |  | > 2500 nM |
| COc1ccc2cnn(C)c2c1NS(=O)(=O)c1cnn(-c2cc(N3CC4CC(C4)C3)ccn2)c1 [Compound I-404] | > 2500 nM | < 400 nM |  |  |
| COc1ncc2cnn(C)c2c1NS(=O)(=O)c1cnn(-c2cc(N3CC4CC(C4)C3)ccn2)c1 [Compound I-406] | > 2500 nM | < 400 nM |  |  |
